Source: the supplement of paper PMC10307832

How the values were obtained:
Assay in all cases: relative viability (nuclei count vs DMSO), 5 days (fraction); higher = more cells survive
Masitinib + AZD7762 = compound: Cc1ccc(NC(=O)c2ccc(CN3CCN(C)CC3)cc2)cc1Nc1nc(-c2cccnc2)cs1 [Masitinib] + NC(=O)Nc1cc(-c2cccc(F)c2)sc1C(=O)N[C@H]1CCCNC1 [AZD7762] (partner 0.2 µM)
Outline: (§1)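 Lung cancer cell lines were pin-tool dosed in 1536-well plates on the day after seeding, with either a lone drug or a fixed anchor-drug dose plus five library-drug doses (not always all listed) in √10 steps. Nuclei were counted on 4× images after 5 days. Relative viability is the ratio of treated-well to vehicle-well nuclei counts, with each value a median of duplicate plates.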

Masitinib + OSI-027 = compound: Cc1ccc(NC(=O)c2ccc(CN3CCN(C)CC3)cc2)cc1Nc1nc(-c2cccnc2)cs1 [Masitinib] + COc1cccc2cc(-c3nc([C@H]4CC[C@H](C(=O)O)CC4)n4ncnc(N)c34)[nH]c12 [OSI-027] (partner 0.5 µM)
Outline: as §1

[1] = compound: CC1=CC(=CC=C1)NC2=NC(=CS2)C3=CC=NC=C3 + COc1cc2c(Oc3ccc(NC(=O)C4(C(=O)Nc5ccc(F)cc5)CC4)cc3F)ccnc2cc1OCCCN1CCOCC1 [Foretinib] (partner 0.25 µM)
Outline: as §1

[2] = compound: CC1=CC(=CC=C1)NC2=NC(=CS2)C3=CC=NC=C3 + CS(=O)(=O)CCNCc1ccc(-c2ccc3ncnc(Nc4ccc(OCc5cccc(F)c5)c(Cl)c4)c3c2)o1 [Lapatinib] (partner 2 µM)
Outline: as §1

Cell Line | relative viability (Masitinib + AZD7762; first compound 0.03162 µM) | relative viability (Masitinib + AZD7762; first compound 0.1 µM) | relative viability (Masitinib + AZD7762; first compound 0.3162 µM) | relative viability (Masitinib + AZD7762; first compound 1 µM) | relative viability (Masitinib + OSI-027; first compound 0.03162 µM) | relative viability (Masitinib + OSI-027; first compound 0.3162 µM) | relative viability (Masitinib + OSI-027; first compound 1 µM) | relative viability ([1]; first compound 0.08 µM) | relative viability ([1]; first compound 0.253 µM) | relative viability ([1]; first compound 0.8 µM) | relative viability ([1]; first compound 2.53 µM) | relative viability ([1]; first compound 8 µM) | relative viability ([2]; first compound 0.08 µM) | relative viability ([2]; first compound 0.253 µM) | relative viability ([2]; first compound 0.8 µM) | relative viability ([2]; first compound 2.53 µM) | relative viability ([2]; first compound 8 µM) | relative viability (Masitinib + AZD7762; first compound 0.01 µM) | relative viability (Masitinib + OSI-027; first compound 0.01 µM) | relative viability (Masitinib + OSI-027; first compound 0.1 µM)
HCC-366 | 0.226 | 0.256 | 0.203 | 0.188 | 1 | 0.792 | 0.78 | 0.859 | 0.89 | 0.883 | 0.885 | 0.9 | 0.848 | 1.07 | 1.01 | 1.05 | 0.951 | – | – | –
HCC-827 | 0.198 | 0.192 | 0.165 | 0.213 | 0.704 | 0.84 | 0.692 | 1.02 | 1 | 0.997 | 1.02 | 0.958 | 0.204 | 0.187 | 0.191 | 0.187 | 0.179 | 0.224 | 0.728 | 0.832
IA-LM | – | – | – | – | – | – | – | 1.04 | 1.16 | 1.03 | 0.941 | 0.838 | 0.65 | 0.503 | 0.561 | 0.508 | 0.572 | – | – | –
LCLC-103H | 0.885 | 0.566 | 0.831 | 0.791 | 0.526 | 0.459 | 0.404 | 0.663 | 0.695 | 0.725 | 0.76 | 0.608 | – | – | – | – | – | – | 0.412 | 0.414
NCI-H441 | 1.2 | 1.28 | 1.35 | 1.28 | 0.628 | 0.717 | 0.429 | 0.754 | 0.791 | 1.12 | 0.857 | 0.842 | – | – | – | – | – | 1.23 | 0.654 | 0.798
NCI-H520 | – | – | – | – | 0.265 | 0.237 | 0.228 | 0.773 | 0.778 | 0.71 | 0.647 | 0.938 | 0.883 | 0.827 | 0.932 | 0.777 | 0.954 | – | 0.267 | 0.261
NCI-H522 | 0.874 | 0.894 | 0.643 | 0.795 | – | 0.781 | 0.698 | – | – | – | – | – | – | – | – | – | – | 0.892 | 0.784 | 0.781
NCI-H661 | – | – | – | – | 0.648 | 0.643 | 0.528 | 0.904 | 1.07 | 0.973 | 0.999 | 0.863 | 0.481 | 0.506 | 0.573 | 0.468 | 0.507 | – | 0.672 | 0.727
NCI-H1299 | – | – | – | – | – | – | – | 1 | 1.06 | 0.993 | 1.01 | 0.897 | 0.969 | 0.938 | 0.933 | 0.946 | 0.84 | – | – | –
NCI-H1563 | – | – | – | – | 0.717 | 0.738 | 0.705 | 0.772 | 0.962 | 0.974 | 0.912 | 0.765 | 0.912 | 0.64 | 0.912 | 0.761 | 0.634 | – | 0.741 | 0.781
NCI-H1623 | – | – | – | – | 0.507 | 0.318 | 0.367 | 0.836 | 0.729 | 0.776 | 0.699 | 0.824 | – | – | – | – | – | – | 0.373 | 0.447
NCI-H1648 | 0.678 | 0.711 | – | 0.679 | – | 0.268 | 0.254 | – | – | – | – | – | – | – | – | – | – | 0.567 | 0.272 | 0.236
NCI-H1650 | – | – | – | – | 0.478 | 0.499 | 0.543 | 1.13 | 1.13 | 1.04 | 1.22 | 1.13 | 0.801 | 0.735 | 0.753 | 0.445 | 0.176 | – | 0.58 | 0.719
NCI-H1703 | 0.158 | 0.102 | 0.121 | 0.106 | – | – | – | 0.293 | 0.347 | 0.367 | 0.374 | 0.375 | 0.894 | 1.21 | 1.19 | 1.36 | 1.07 | 0.113 | – | –
NCI-H1792 | 0.502 | 0.611 | 0.39 | 0.547 | 0.402 | 0.563 | 0.9 | – | – | – | – | – | 0.885 | 0.659 | 0.772 | 0.722 | 0.866 | 0.733 | 0.762 | 0.71
NCI-H2009 | – | – | – | – | 0.654 | 0.616 | 0.606 | 1.2 | 1.11 | 1.14 | 1.22 | 1.18 | 0.768 | 0.857 | 0.978 | 0.89 | 0.588 | – | 0.591 | 0.646
NCI-H2023 | – | – | – | – | 0.412 | 0.271 | 0.27 | 0.81 | 0.712 | 0.778 | 1.09 | 0.681 | 0.661 | 0.698 | 0.771 | 0.749 | 0.473 | – | 0.387 | 0.592
NCI-H2228 | – | – | – | – | 0.661 | 0.807 | 0.528 | 0.705 | 0.955 | 0.766 | 0.893 | 0.892 | 0.948 | 1.11 | 0.884 | 0.823 | 0.883 | – | 0.633 | 0.638
NCI-H2342 | 0.402 | 0.427 | 0.508 | 0.456 | 0.58 | 0.592 | 0.593 | 0.889 | 1.03 | 0.949 | 1.08 | 1.14 | – | – | – | – | – | 0.51 | 0.637 | 0.696
SK-LU-1 | – | – | – | – | 0.334 | 0.329 | 0.368 | 0.767 | 0.886 | – | 0.781 | 0.76 | 0.994 | 1.05 | – | 0.835 | 0.937 | – | 0.361 | 0.346
SK-MES-1 | – | – | – | – | 0.668 | 0.52 | 0.651 | 0.687 | 0.78 | 0.751 | 1.04 | 0.8 | 0.449 | 0.416 | 0.378 | 0.432 | 0.369 | – | 0.615 | 0.684
SW 900 | 0.548 | 0.568 | 0.574 | 0.576 | 0.443 | 0.527 | 0.482 | 1.05 | 0.89 | 0.797 | 0.756 | 0.851 | – | – | – | – | – | 0.664 | 0.654 | 0.627
SW 1573 | – | – | – | – | 0.627 | 0.66 | 0.559 | 0.818 | 0.872 | 0.97 | 0.986 | 0.869 | 1.13 | 0.977 | 1.15 | 1.38 | 1.08 | – | 0.646 | 0.798
